Results on seven molecules are retold here after patent publication US9783499B2, “Quinoline derivatives and their applications” (Shenyang Pharmaceutical University, priority 2012, dated 2017).

Values after ≈ are worked out from the molar mass of the structure shown.

Assay [1] has as its system human tumor cell lines (such as human lung cancer cells, human gastric cancer cells, etc.). To be noted: cited from earlier work.
In assay [2] the test system is MKN-45 (human gastric carcinoma cell). Description: In vitro anti-tumor cellular activity (MTT), MKN-45. The class given is cell-based. The note with it: 72 hours. The protocol:
(§1) After pouring the cell dissociation buffer to the centrifugetube, nutrient solution was added to stop digestion. The centrifugetube were centrifuged for 10 min under 800 r/min, the liquid supernatant was removed, 5 mL culture solution was added, after mixing by pipetting the cell, took 10 μL cell suspension to the cell counting plat, and adjusted the cell concentration to 10^4/well. Among the 96 wells, A1 is empty, 100 μL of cell suspension were added to the other wells. The 96 well plates were incubated in the incubator for 24 h. […] The 96-well plates were placed in an incubator and cultivated for 72 hours. (3) The culture media containing the compounds in the 96-well plates was discarded, and the cells were washed with phosphate buffered solution (PBS) twice. Each well was added with 100 μL MTT (tetrazole) (0.5 mg/mL), and then placed in an incubator to incubate for 4 hours, after which MTT solution was discarded and 100 μL dimethyl sulfoxide was added thereto.

In assay [3] the test system is MDA-MB-231 (human beast cancer cell). Nature of the assay: In vitro anti-tumor cellular activity (MTT), MDA-MB-231. The class given is cell-based. To be noted: 72 hours. How it is done: as §1
Assay [4] has as its system H460 (human lung cancer cell). Nature of the assay: In vitro anti-tumor cellular activity (MTT), H460. Type of assay: cell-based. The note with it: for H460 IC50: 72 hours. How it is done: as §1
In assay [5] the test system is U87MG (Human malignant glioblastoma cell). Nature of the assay: In vitro anti-tumor cellular activity (MTT), U87MG. Type of assay: cell-based. To be noted: 72 hours. The protocol:
as §1

Assay [6] relates to HT-29 (colon cancer cell). Description: In vitro anti-tumor cellular activity (MTT), HT-29. To be noted: 72 hours. Type of assay: cell-based. The protocol: as §1
Assay [7] relates to SMMC-7721 (hepatoma cell). Description: In vitro anti-tumor cellular activity (MTT), SMMC-7721. The note with it: 72 hours. The class given is cell-based. How it is done: as §1

Take `COc1cc2c(Oc3ccc(NC(=O)C4(C(=O)Nc5ccc(F)cc5)CC4)cc3F)ccnc2cc1OCCCN1CCOCC1` [Foretinib]: the “IC50 against a variety of human tumor cell lines” value in assay [1] is on record as “about 0.004 mg/mL”.

On to `COc1cc2c(Oc3ccc(NC(=O)N/N=C/c4ccc(F)c(F)c4)cc3F)ccnc2cc1OCCCN1CCCC1` [Example 22, (E)-N^1-(3-fluoro-4-(6-methoxy-7-(3-(pyrrolidin-1-yl)propoxy)quinoline-4-lyoxy)phenyl)-N^4-(3,4-difluorobenzaldehyde)semicarbazone], for which the “MKN-45 IC50” value in assay [2] was determined as 0.37 µg/mL. For the same molecule, the “MDA-MB-231 IC50” value in assay [3] stood at 0.31 µg/mL. For the same molecule, the “H460 IC50” value in assay [4] was 0.29 µg/mL. In addition, the “U87MG IC50” value in assay [5] came to 0.66 µg/mL. Moreover, the “HT-29 IC50” value in assay [6] came to 0.19 µg/mL. In addition, the “SMMC-7721 IC50” value in assay [7] was determined as 1.2 µg/mL.

For the molecule `COc1cc2c(Oc3ccc(NC(=O)N/N=C/c4ccccc4)cc3F)ccnc2cc1OCCCN1CCCCC1` [Example 5, (E)-N^1-(3-fluoro-4-(6-methoxy-7-(3-(piperidin-1-yl)propoxy)quinoline-4-yloxy)phenyl)-N^4-(benzaldehyde)semicarbazone], the “MKN-45 IC50” value in assay [2] was determined as 0.012 µg/mL. The “MDA-MB-231 IC50” value in assay [3] was found to be 0.010 µg/mL. Also, the “H460 IC50” value in assay [4] was found to be 0.012 µg/mL. The “U87MG IC50” value in assay [5] was determined as 0.19 µg/mL. The “HT-29 IC50” value in assay [6] is 0.0088 µg/mL. Also, in assay [7], the “SMMC-7721 IC50” value came out at 0.16 µg/mL.

The IC50 is the concentration at which inhibition is half-maximal. Read a high IC50 as lower potency. `COc1cc2c(Oc3ccc(N(/N=C/c4ccc(F)cc4)C(N)=S)cc3F)ccnc2cc1OCCCN1CCOCC1` [Example 45, (E)-N^1-(3-fluoro-4-(6-methoxy-7-(3-(morpholin-4-yl)propoxy)quinoline-4-yloxy)phenyl)-N^4-(4-fluorobenzaldehyde)thiosemicarbazone]: the IC50 turned out to be 0.37 µg/mL (≈ 0.609 µM) in assay [2] (Homo sapiens); 0.17 µg/mL (≈ 0.28 µM) in assay [3] (Homo sapiens); 0.11 µg/mL (≈ 0.181 µM) in assay [4] (Homo sapiens, NCI-H460, 72 hours); 0.9 µg/mL (≈ 1.48 µM) in assay [5] (Homo sapiens, U-87 MG); 0.19 µg/mL (≈ 0.313 µM) in assay [6] (Homo sapiens); 1 µg/mL (≈ 1.65 µM) in assay [7] (Homo sapiens).

As for “(E)-N^1-phenyl-N^4-(3-fluoro-4-(6-methoxy-7-(3-(4-methylpiperidin-1-yl)propoxy)quinoline-4-yloxy)benzaldehyde)thiosemicarbazone [Example 63]”, in assay [2], the “MKN-45 IC50” value was found to be 0.73 µg/mL. Also, in assay [3], the “MDA-MB-231 IC50” value came out at 0.14 µg/mL. Also, in assay [4], the “H460 IC50” value is 0.33 µg/mL. Further, the “U87MG IC50” value in assay [5] came to 1.0 µg/mL. Further, in assay [6], the “HT-29 IC50” value worked out at 0.50 µg/mL. Besides, the “SMMC-7721 IC50” value in assay [7] was determined as 0.64 µg/mL.

With `COc1cc2c(Oc3ccc(NC(=O)N/N=C/c4ccccc4)cc3F)ccnc2cc1OCCCN1CCOCC1` [Example 3, (E)-N^1-(3-fluoro-4-(6-methoxy-7-(3-(morpholin-4-yl)propoxy)quinoline-4-yloxy)phenyl)-N^4-(benzaldehyde)semicarbazone], the “MKN-45 IC50” value in assay [2] came out at 0.12 µg/mL. Also, the “MDA-MB-231 IC50” value in assay [3] was determined as 0.13 µg/mL. In assay [4], the “H460 IC50” value turned out to be 0.11 µg/mL. For the same molecule, the “U87MG IC50” value in assay [5] turned out to be 0.33 µg/mL. In assay [6], the “HT-29 IC50” value was determined as 0.42 µg/mL. Also, in assay [7], the “SMMC-7721 IC50” value is 2.1 µg/mL.

Turning to `COc1cc2c(Oc3ccc(C=NNC(=O)Nc4ccc(Cl)c(C(F)(F)F)c4)cc3F)ccnc2cc1OCCCN1CCCCC1` [Example 46], the “MKN-45 IC50” value in assay [2] came to 0.23 µg/mL. In assay [3], the “MDA-MB-231 IC50” value is 0.25 µg/mL. Moreover, the “H460 IC50” value in assay [4] worked out at 0.33 µg/mL. Moreover, the “U87MG IC50” value in assay [5] was determined as 1.2 µg/mL. Also, in assay [6], the “HT-29 IC50” value is 0.45 µg/mL. Also, the “SMMC-7721 IC50” value in assay [7] stood at 0.69 µg/mL.
